# Measured values reported in patent US9833497B2, “Human originated EGF domain proteins and use of the same” (CHENGDU SOURCEBIO LIMITED-LIABILITY COMPANY, priority 2013, dated 2017).
# Experiments:
# Type in all cases: cell-based
# [1] = test system: Pseudomonas aeruginosa; test: MIC against Gram-negative bacteria: Pseudomonas aeruginosa; conditions: 5×10^5 CFU/mL
# Outline: (§1)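 Bacteria grown in LB at 37° C with shaking to McFarland 0.5, pelleted and resuspended in fresh LB, then seeded at 5×10^5 CFU/mL per well. Purified recombinant human EGF domain proteins were two-fold serially diluted in triplicate and plates shaken at 37° C, 175 rpm. MIC is the lowest protein concentration with no bacterial growth.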
# [2] = test system: Klebsiella pneumonia; test: MIC against Gram-negative bacteria: Klebsiella pneumonia; conditions: 5×10^5 CFU/mL
# Outline: as §1
# [3] = test system: Proteus vulgaris; test: MIC against Gram-negative bacteria: Proteus vulgaris; conditions: 5×10^5 CFU/mL
# Outline: as §1
# [4] = test system: Moraxella catarrhalis; test: MIC against Gram-negative bacteria: Moraxella catarrhalis; conditions: 5×10^5 CFU/mL
# Outline: as §1
# [5] = test system: Enterobacter cloacae; test: MIC against Gram-negative bacteria: Enterobacter cloacae; conditions: 5×10^5 CFU/mL
# Outline: as §1
# [6] = test system: Citrobacter diversus; test: MIC against Gram-negative bacteria: Citrobacter diversus; conditions: 5×10^5 CFU/mL
# Outline: as §1
# [7] = test system: E. coli DH5α; test: Antibacterial activity: MIC and growth curve against E. coli DH5α in 96-well plate; conditions: minimal inhibitory concentration against E. coli DH5α; 96-well plate, 5×10^5 CFU/mL, 37° C., judged after 8 h
# Outline: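 Log-phase DH5α (OD600 about 0.5, 37° C, 185 rpm in LB) was pelleted, resuspended in fresh LB and seeded at 5×10^5 CFU/mL with recombinant protein at 50, 25 and 12.5 μg/mL (two-fold series), in triplicate. Plates were shaken at 175 rpm, 37° C, and OD600 was read every 30 min. MIC was the lowest concentration with no growth.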
# [8] = test system: Aeromonas hydrophila; test: MIC against Gram-negative bacteria: Aeromonas hydrophila; conditions: 5×10^5 CFU/mL
# Outline: as §1
# [9] = test system: Serratia marcescens; test: MIC against Gram-negative bacteria: Serratia marcescens; conditions: 5×10^5 CFU/mL
# Outline: as §1
# [10] = test system: E. coli BL21; test: MIC against Gram-negative bacteria: E. coli BL21; conditions: 5×10^5 CFU/mL
# Outline: as §1
# [11] = test system: Proteus mirabilis; test: MIC against Gram-negative bacteria: Proteus mirabilis; conditions: 5×10^5 CFU/mL
# Outline: as §1
# [12] = 10 h cultivation at 37° C., two-fold serial dilution
# [13] = Pseudomonas aeruginosa, 96-well plate, 37° C., 10 h
# [14] = Klebsiella pneumonia, 96-well plate, 37° C., 10 h
# [15] = Proteus vulgaris, 96-well plate, 37° C., 10 h
# [16] = Moraxella catarrhalis, 96-well plate, 37° C., 10 h
# [17] = Enterobacter cloacae, 96-well plate, 37° C., 10 h
# [18] = Citrobacter diversus, 96-well plate, 37° C., 10 h
# [19] = Aeromonas hydrophila, 96-well plate, 37° C., 10 h
# [20] = Serratia marcescens, 96-well plate, 37° C., 10 h
# [21] = Proteus mirabilis, 96-well plate, 37° C., 10 h
substance,measurement,setting,value
PRT549 (CDCSGNGDPNLLFSDCDPLTGACRGCLRHTTGPRCEICAPGFYGNALLPGNCTR; listed as Homo sapiens),MIC against P. aeruginosa,"[1]; 96-well plate, 37° C., 10 h",12.5 mg/L
same,MIC against K. pneumonia,"[2]; 96-well plate, 37° C., 10 h",50 mg/L
same,MIC against P. vulgaris,"[3]; 96-well plate, 37° C., 10 h",25 mg/L
same,MIC against M. catarrhalis,"[4]; 96-well plate, 37° C., 10 h",25 mg/L
same,MIC against E. cloacae,"[5]; 96-well plate, 37° C., 10 h",12.5 mg/L
same,MIC against C. diversus,"[6]; 96-well plate, 37° C., 10 h",12.5 mg/L
same,MIC,[7],12.5 mg/L
same,MIC against A. hydrophila,"[8]; 96-well plate, 37° C., 10 h",50 mg/L
same,MIC against S. marcescens,"[9]; 96-well plate, 37° C., 10 h",12.5 mg/L
same,MIC against E. coli BL21,"[10]; 96-well plate, 37° C., 10 h",50 mg/L
same,MIC against P. mirabilis,"[11]; 96-well plate, 37° C., 10 h",12.5 mg/L
PRT1068 (DINECLRFGTCSQLCNNTKGGHLCSCARNFMKTHNTCK; listed as Homo sapiens),MIC P. aeruginosa,[1]; [12],25 mg/L
same,MIC K. pneumonia,[2]; [12],12.5 mg/L
same,MIC P. vulgaris,[3]; [12],50 mg/L
same,MIC M. catarrhalis,[4]; [12],12.5 mg/L
same,MIC E. cloacae,[5]; [12],25 mg/L
same,MIC C. diversus,[6]; [12],25 mg/L
same,MIC,[7],12.5 mg/L
same,MIC A. hydrophila,[8]; [12],50 mg/L
same,MIC S. marcescens,[9]; [12],25 mg/L
same,MIC E. coli BL21,[10]; [12],50 mg/L
same,MIC P. mirabilis,[11]; [12],25 mg/L
PRT18 (CQCNPHGSYGGTCDPATGQCSCRPGVGGLRCDRCEPGFWNFRGIVTDGRSGCTP; listed as Homo sapiens),MIC (μg/mL) P. aeruginosa,[1]; [13],25 µg/mL
same,MIC (μg/mL) K. pneumonia,[2]; [14],100 µg/mL
same,MIC (μg/mL) P. vulgaris,[3]; [15],12.5 µg/mL
same,MIC (μg/mL) M. catarrhalis,[4]; [16],12.5 µg/mL
same,MIC (μg/mL) E. cloacae,[5]; [17],50 µg/mL
same,MIC (μg/mL) C. diversus,[6]; [18],12.5 µg/mL
same,MIC,[7],12.5 mg/L
same,MIC (μg/mL) A. hydrophila,[8]; [19],25 µg/mL
same,MIC (μg/mL) S. marcescens,[9]; [20],12.5 µg/mL
same,MIC (μg/mL) E. coli BL21,"[10]; 96-well plate, 37° C., 10 h",50 µg/mL
same,MIC (μg/mL) P. mirabilis,[11]; [21],25 µg/mL
PRT627 (CTCNPAGSLDTCDPRSGRCPCKENVEGNLCDRCRPGTFNLQPHNPAGCSS; listed as Homo sapiens),MIC P. aeruginosa,"[1]; 96-well plate, 37° C., 10 h",12.5 mg/L
same,MIC K. pneumonia,"[2]; 96-well plate, 37° C., 10 h",12.5 mg/L
same,MIC P. vulgaris,"[3]; 96-well plate, 37° C., 10 h",12.5 mg/L
same,MIC M. catarrhalis,"[4]; 96-well plate, 37° C., 10 h",12.5 mg/L
same,MIC E. cloacae,"[5]; 96-well plate, 37° C., 10 h",12.5 mg/L
same,MIC C. diversus,"[6]; 96-well plate, 37° C., 10 h",12.5 mg/L
same,MIC,[7],12.5 mg/L
same,MIC A. hydrophila,"[8]; 96-well plate, 37° C., 10 h",12.5 mg/L
same,MIC S. marcescens,"[9]; 96-well plate, 37° C., 10 h",50 mg/L
same,MIC E. coli BL21,"[10]; 96-well plate, 37° C., 10 h",25 mg/L
same,MIC P. mirabilis,"[11]; 96-well plate, 37° C., 10 h",50 mg/L
PRT103 (CSSYGKLCRNGGKCRERPIGFFCDCTFSAYTGPFC; listed as Homo sapiens),MIC (μg/mL) P. aeruginosa,[1]; [13],50 µg/mL
same,MIC (μg/mL) K. pneumonia,[2]; [14],12.5 µg/mL
same,MIC (μg/mL) P. vulgaris,[3]; [15],12.5 µg/mL
same,MIC (μg/mL) M. catarrhalis,[4]; [16],12.5 µg/mL
same,MIC (μg/mL) E. cloacae,[5]; [17],12.5 µg/mL
same,MIC (μg/mL) C. diversus,[6]; [18],12.5 µg/mL
same,MIC,[7],50 mg/L
same,MIC (μg/mL) A. hydrophila,[8]; [19],12.5 µg/mL
same,MIC (μg/mL) S. marcescens,[9]; [20],25 µg/mL
same,MIC (μg/mL) E. coli BL21,"[10]; 96-well plate, 37° C., 10 h",12.5 µg/mL
same,MIC (μg/mL) P. mirabilis,[11]; [21],25 µg/mL
PRT1098 (DIDNCQSHQCANGATCISHTNGYSCLCFGNFTGKFCR; listed as Homo sapiens),MIC P. aeruginosa,[1]; [12],12.5 mg/L
same,MIC K. pneumonia,[2]; [12],12.5 mg/L
same,MIC P. vulgaris,[3]; [12],25 mg/L
same,MIC M. catarrhalis,[4]; [12],25 mg/L
same,MIC E. cloacae,[5]; [12],12.5 mg/L
same,MIC C. diversus,[6]; [12],12.5 mg/L
same,MIC,[7],12.5 mg/L
same,MIC A. hydrophila,[8]; [12],25 mg/L
same,MIC S. marcescens,[9]; [12],50 mg/L
same,MIC E. coli BL21,[10]; [12],12.5 mg/L
same,MIC P. mirabilis,[11]; [12],12.5 mg/L
PRT761 (RKDVCQAIDHGCEHICVNSDDSYTCECLEGFRLAEDGKRCR; listed as Homo sapiens),MIC (μg/mL) P. aeruginosa,"[1]; P. aeruginosa, 10 h cultivation at 37° C.",50 µg/mL
same,MIC (μg/mL) K. pneumonia,"[2]; K. pneumonia, 10 h cultivation at 37° C.",12.5 µg/mL
same,MIC (μg/mL) P. vulgaris,"[3]; P. vulgaris, 10 h cultivation at 37° C.",12.5 µg/mL
same,MIC (μg/mL) M. catarrhalis,"[4]; M. catarrhalis, 10 h cultivation at 37° C.",25 µg/mL
same,MIC (μg/mL) E. cloacae,"[5]; E. cloacae, 10 h cultivation at 37° C.",50 µg/mL
same,MIC (μg/mL) C. diversus,"[6]; C. diversus, 10 h cultivation at 37° C.",12.5 µg/mL
same,MIC,[7],50 mg/L
same,MIC (μg/mL) A. hydrophila,"[8]; A. hydrophila, 10 h cultivation at 37° C.",25 µg/mL
same,MIC (μg/mL) S. marcescens,"[9]; S. marcescens, 10 h cultivation at 37° C.",25 µg/mL
same,MIC (μg/mL) E. coli BL21,[10]; 10 h cultivation at 37° C.,12.5 µg/mL
same,MIC (μg/mL) P. mirabilis,"[11]; P. mirabilis, 10 h cultivation at 37° C.",50 µg/mL
